In PMC6685669, “Mapping the Structural Path for Allosteric Inhibition of a Short-Form ATP Phosphoribosyltransferase by Histidine” (Biochemistry, 2019):

Tests used:
PaATPPRT [1] = target: T1, PaATPPRT (Psychrobacter arcticus, UniProt Q4FQF7+Q4FTX3); type: biochemical; details: ADP replacing ATP as substrate, 20 °C
T1 construct: made in house

PaATPPRT [2] = target: T1, PaATPPRT; assay: PaATPPRT activity assay, initial rates (absorbance at 290 nm, PRATP formation), inhibition by histidine; type: biochemical; details: for Kii: linear regression of intercept replot of individually fitted double-reciprocal curves
Experimental: All assays were performed under initial rate conditions in the forward direction at 20 °C, in the presence or absence of histidine, as previously described[20] by monitoring the increase in absorbance at 290 nm due to the formation of PRATP (ε290 = 3600 M^–1 cm^–1)[23] in 1 cm path length quartz cuvettes (Hellma) in a Shimadzu UV-2600 spectrophotometer. Unless stated otherwise, for PaHisGS activity, the PaHisGS concentration was typically 2 μM, and for PaATPPRT activity, PaHisGS and PaHisZ concentrations were 0.28 and 15 μM, respectively. Reactions were started by addition of PRPP. Control reaction mixtures lacked either ATP, PRPP, PaHisGS, or PaHisZ. […] Initial rates were also measured with saturating concentrations of both substrates in the presence or absence of 4 mM TIH. All kinetic measurements were performed at least in duplicate unless stated otherwise.
The half-maximal inhibitory concentration of histidine was determined by measuring the initial rates for PaATPPRT (0.24 μM) in the presence of 5.6 mM ATP (or 5.6 mM ADP), 2 mM PRPP, and varying concentrations of histidine (0–320 μM). The inhibition mechanism was investigated by measuring the initial rates for PaATPPRT (0.28 μM) at saturating concentrations of one substrate and varying concentrations of the other, either ATP (0.2–2.8 mM) or PRPP (0.1–2.0 mM), with different concentrations of histidine (0–10 μM). In some instances, the lowest-concentration data point was an outlier in the double-reciprocal plot and was excluded from the fit.
Kinetic and DSF data were analyzed by the nonlinear regression function of SigmaPlot 13 (SPSS Inc.). Data points and error bars in graphs are represented as means ± the standard error, and kinetic and equilibrium constants are presented as means ± the fitting error. Substrate saturation data were fitted to eq 1. Inhibition data at fixed substrate concentrations were fitted to eq 2, and inhibition mechanism data were fitted to eq 3. In eqs 1–3, v is the initial rate, S is the concentration of the varying substrate, kcat is the steady-state turnover number, KM is the apparent Michaelis constant, ET is total enzyme concentration, vi is the initial rate in the presence of an inhibitor, IC50 is the half-maximal inhibitory concentration, h is the Hill slope, Kis is the slope inhibition constant, and Kii is the intercept inhibition constant. DSF thermal denaturation data were fitted to eq 4,[30] and PaHisZ–histidine complex equilibrium dissociation data were fitted to eq 5. In eqs 4 and 5, FU is the fraction unfolded, T is the temperature in degrees Celsius, Tm is the melting temperature, c is the slope of the transition region, LL and UL are folded and unfolded baselines, respectively, Tm0 is the Tm in the absence of histidine, Tm∞ is the Tm at an infinite histidine concentration, H is the histidine concentration, and KD is the apparent equilibrium dissociation constant for the PaHisZ–histidine complex.

PaHisZ = target: T2, PaHisZ (Psychrobacter arcticus, UniProt Q4FTX3); assay: Differential scanning fluorimetry (DSF), thermal denaturation of PaHisZ; type: binding
T2 construct: made in house
Experimental: DSF measurements (λex = 490 nm; λem = 610 nm) were performed in 96-well plates on a Stratagene Mx3005p instrument. Thermal denaturation of 9.4 μM PaHisZ was assayed (50 μL) in the presence of several histidine concentrations (0–8 mM) in 100 mM tricine, 100 mM KCl, 4 mM DTT, and 15 mM MgCl2 (pH 8.5). Sypro Orange (5×) (Invitrogen) was added to all wells. Thermal denaturation curves were recorded over a temperature range of 25–65 °C with 1 °C min^–1 increments. Control curves without the enzyme and were subtracted from curves with the enzyme. All measurements were carried out in quintuplicate.
Kinetic and DSF data were analyzed by the nonlinear regression function of SigmaPlot 13 (SPSS Inc.). Data points and error bars in graphs are represented as means ± the standard error, and kinetic and equilibrium constants are presented as means ± the fitting error. Substrate saturation data were fitted to eq 1. Inhibition data at fixed substrate concentrations were fitted to eq 2, and inhibition mechanism data were fitted to eq 3. […]

PaATPPRT [3] = target: T1, PaATPPRT; assay: Rapid kinetics (stopped-flow), approach to steady state in the PaATPPRT reaction; type: biochemical
Experimental: Rapid kinetics experiments were carried out under multiple-turnover conditions by monitoring the increase in absorbance at 290 nm upon PRATP formation at 20 °C in an Applied Photophysics SX-20 stopped-flow spectrophotometer outfitted with a 5 μL mixing cell (0.5 cm path length and 0.9 ms dead time). In all experiments, each syringe contained 100 mM tricine (pH 8.5), 100 mM KCl, 4 mM DTT, 15 mM MgCl2, and 10 μM MtPPase. For the approach to steady state in the PaATPPRT reaction, one syringe carried 38 μM PaATPPRT, 4 mM PRPP, and either 0 or 60 μM histidine, while the other carried 7 mM ATP and either 0 or 60 μM histidine. Reaction was triggered by rapidly mixing 55 μL from each syringe. The increase in absorbance was monitored in a split-time base for 1 s, with 2500 data points collected before 0.2 s and 2500 in the following 0.8 s. At least four traces were acquired for each reaction, and controls lacked PRPP. For initial rates of PaATPPRT and PaHisGS reactions, one syringe carried either 2–4 μM PaHisGS or 4 μM PaATPPRT, 4 mM PRPP, and either 0 or 1.28 mM histidine, while the other carried 11.2 mM ATP. Reaction was triggered by rapidly mixing 55 μL from each syringe. The increase in absorbance was monitored in a linear-time base for 10 s. At least four traces were acquired for each reaction, with 1000 data points collected per trace. Controls lacked PRPP.

Y263F-PaATPPRT = target: T3, Y263F-PaATPPRT (Psychrobacter arcticus, UniProt Q4FQF7+Q4FTX3, Y263F); assay: Y263F-PaHisZ-based PaATPPRT activity assay, initial rates with and without histidine; type: biochemical
T3 construct: made in house
Text: Replacement of tyrosine for phenylalanine at position 263 of PaHisZ was accomplished by the method of Liu and Naismith,[29] with primers 5′-[…]-3′ and 5′-[…]-3′. Successful mutation was confirmed by DNA sequencing (Eurofins Genomics). Y263F-PaHisZ was expressed and purified by the same protocol reported for wild-type (WT) PaHisZ.[20] ESI/MS analysis of the protein yielded a mass of 43068.9, exactly what would be expected by the loss of a hydroxyl group when compared with the mass of WT-PaHisZ.[20] Y263F-PaHisZ-based PaATPPRT was assayed for catalytic activity under initial rate conditions at 20 °C in the presence of 5.6 mM ATP and 2 mM PRPP and in the presence or absence of 320 μM histidine, along with other reaction components exactly as described for WT-PaATPPRT. Measurements were carried out in duplicate.

PaHisGS = test system: PaHisGS; set-up: method as in PMID 28092443; details: PaHisGS in the absence of PaHisZ; cited from earlier work
[4] = ATP and histidine (60 μM in syringe) rapidly mixed with PaATPPRT preincubated with PRPP
[5] = ATP rapidly mixed with PaATPPRT preincubated with PRPP and histidine (60 μM in syringe)

T1 sequence (Q4FTX3 whole entry): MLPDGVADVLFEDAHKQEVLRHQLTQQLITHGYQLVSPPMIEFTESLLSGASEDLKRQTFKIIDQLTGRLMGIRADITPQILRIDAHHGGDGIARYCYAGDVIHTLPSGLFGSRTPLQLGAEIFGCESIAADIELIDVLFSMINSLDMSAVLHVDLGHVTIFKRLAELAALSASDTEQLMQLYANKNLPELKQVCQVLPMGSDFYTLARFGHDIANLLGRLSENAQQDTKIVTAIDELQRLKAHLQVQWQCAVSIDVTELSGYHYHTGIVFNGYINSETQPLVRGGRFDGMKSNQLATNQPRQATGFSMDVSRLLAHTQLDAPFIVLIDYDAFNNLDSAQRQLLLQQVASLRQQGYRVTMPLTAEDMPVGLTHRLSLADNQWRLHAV
T1 sequence (Q4FQF7 whole entry): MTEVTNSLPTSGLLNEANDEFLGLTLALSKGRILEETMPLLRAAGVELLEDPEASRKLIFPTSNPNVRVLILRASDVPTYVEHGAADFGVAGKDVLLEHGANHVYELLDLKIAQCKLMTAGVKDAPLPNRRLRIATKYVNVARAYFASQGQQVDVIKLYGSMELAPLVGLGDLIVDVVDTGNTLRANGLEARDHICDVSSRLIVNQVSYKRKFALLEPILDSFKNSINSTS
T3 sequence (Q4FQF7 whole entry): as above
T3 sequence (Q4FTX3 whole entry Y263F): as the sequence (Q4FTX3 whole entry) above, with Y263F counted along it
T2 sequence (Q4FTX3 whole entry): as the sequence (Q4FTX3 whole entry) above

For `Nc1ncnc2c1ncn2[C@@H]1O[C@H](COP(=O)(O)OP(=O)(O)O)[C@@H](O)[C@H]1O` [ADP, adenosine 5′-diphosphate], the kcat (PaATPPRT [1]) was 2.6 ± 0.4 s^–1.

With `N[C@@H](Cc1c[nH]cn1)C(=O)O` [Histidine, L-histidine] the “h (Hill slope)” value (PaATPPRT [2]; 5.6 mM ATP, 2 mM PRPP, 20 °C, fit to eq 2) was 1.30 ± 0.04, the “h (Hill slope)” value (PaATPPRT [2]; ADP (5.6 mM) as the substrate, 2 mM PRPP) was 1.32 ± 0.09 and the IC50 (PaATPPRT [2]; IC50, 5.6 mM ATP, 2 mM PRPP, 20 °C, fit to eq 2) was 35.5 ± 0.8 µM. The IC50 (PaATPPRT [2]; IC50, ADP (5.6 mM) as the substrate, 2 mM PRPP) was 31 ± 1 µM, the Ki (PaATPPRT [2]; Kis (slope inhibition constant), against ATP, global fit to eq 3) was 56 ± 25 µM and the Ki (PaATPPRT [2]; Kis (slope inhibition constant), against PRPP, global fit to eq 3) was 22 ± 6 µM. For the same compound, the Ki (PaATPPRT [2]; Kis, against ATP, linear regression of slope replot of individually fitted double-reciprocal curves) was 60 µM, the Ki (PaATPPRT [2]; Kis, against PRPP, linear regression of slope replot of individually fitted double-reciprocal curves) was 30 µM and the “vi/v0 (ratio of initial rates in presence and absence of inhibitor)” value (PaATPPRT [2]; WT-PaATPPRT, 320 μM histidine, 5.6 mM ATP, 2 mM PRPP, 20 °C) was 0.070 ± 0.004. For the same compound, the “Kii (intercept inhibition constant)” value (PaATPPRT [2]; against ATP, global fit to eq 3) was 36 ± 5 µM, the Kii (PaATPPRT [2]; against ATP) was 40 µM and the “Kii (intercept inhibition constant)” value (PaATPPRT [2]; against PRPP, global fit to eq 3) was 38 ± 7 µM. The Kii (PaATPPRT [2]; against PRPP) was 26 µM, the inhibition mechanism (PaATPPRT [2]; against both substrates (PRPP and ATP)) was “noncompetitive” and the Kd (PaHisZ; free PaHisZ 9.4 μM, Tm dependence on histidine 0–8 mM, fit to eq 5, read-out: KD (apparent equilibrium dissociation constant, PaHisZ–histidine complex)) was 2800 ± 800 µM. For the same compound, the “effect on Tm of PaHisZ” value (PaHisZ; free PaHisZ, histidine 0–8 mM) was “increases”, the “amplitude of the burst phase” value (PaATPPRT [3]; [4]) was 3.49 ± 0.01 µM and the steady-state rate (PaATPPRT [3]; [4]) was 7.56 ± 0.01 μM s^–1. The burst amplitude (PaATPPRT [3]; [5]) was 0.53 ± 0.01 µM, the steady-state rate (PaATPPRT [3]; [5]) was 7.83 ± 0.01 μM s^–1 and the “vi/v0 (ratio of initial rates in presence and absence of inhibitor)” value (Y263F-PaATPPRT; 320 μM histidine, 5.6 mM ATP, 2 mM PRPP, 20 °C) was 0.250 ± 0.001. The “susceptibility to inhibition, Y263F-PaATPPRT less susceptible than WT-PaATPPRT” value (Y263F-PaATPPRT; 320 μM histidine, from vi/v0 of mutant and WT) was > 3 fold, the inhibition at 320 µM (Y263F-PaATPPRT; read-out: enzyme activity lost due to histidine inhibition) was 75% and the “sensitivity of PaHisGS to histidine” value (PaHisGS) was “insensitive”.

For `N[C@@H](Cc1cccs1)C(=O)O` [TIH, 3-(2-thienyl)-L-alanine], the “effect on PaATPPRT catalysis” value (PaATPPRT [2]; 4 mM TIH, saturating concentrations of both substrates) was “no effect”.
